Values of other authors as cited in PubChem BioAssay AID1259409 (Chemical Carcinogenesis Research Information System (CCRIS), 2018).

Tested on: rodent chemically induced tumor inhibition, incidence and multiplicity
Assay: CCRIS tumor inhibitor studies
Conditions: Carcinogen: AZOXYMETHANE, 25843-45-2, Dose [Inhibitor]: 0, Route [Inhibitor]: ORAL, Species: RAT, Strain/Sex: F344/MALE, Dose [Carcinogen]: 15 MG/KG BW 1/WK FOR 3 WK, Promoter: NONE USED

O=C(O)c1ccc(O)c(O)c1
tumour outcome (control, treated, inhibition, significance) (500 PPM IN DIET FOR 4 WK BEGINNING 1 WK PRIOR TO CARCINOGEN TREATMENT (STUDY DURATION: 32 WK), Target Tissue: Type of Lesion: COLON: ADENOCARCINOMA): 75%, 55%, 27%, not significant | tumour outcome (control, treated, inhibition, significance) (500 PPM IN DIET FOR 4 WK BEGINNING 1 WK PRIOR TO CARCINOGEN TREATMENT (STUDY DURATION: 32 WK), Target Tissue: Type of Lesion: COLON: ADENOMA): 10%, 5%, 50%, not significant | tumour outcome (control, treated, inhibition, significance) (500 PPM IN DIET FOR 4 WK BEGINNING 1 WK PRIOR TO CARCINOGEN TREATMENT (STUDY DURATION: 32 WK), Target Tissue: Type of Lesion: LARGE INTESTINE: ADENOCARCINOMA): 15/20 (75%), 11/20 (55%), 27%, not significant | tumour outcome (control, treated, inhibition, significance) (500 PPM IN DIET FOR 4 WK BEGINNING 1 WK PRIOR TO CARCINOGEN TREATMENT (STUDY DURATION: 32 WK), Target Tissue: Type of Lesion: LARGE INTESTINE: ADENOMA): 2/20 (10%), 1/20 (5%), 50%, not significant | tumour outcome (control, treated, inhibition, significance) (500 PPM IN DIET FOR 4 WK BEGINNING 1 WK PRIOR TO CARCINOGEN TREATMENT (STUDY DURATION: 32 WK), Target Tissue: Type of Lesion: SMALL INTESTINE: ADENOCARCINOMA): 6/20 (30%), 6/20 (30%), 0%, not significant | tumour outcome (control, treated, inhibition, significance) (500 PPM IN DIET FOR 4 WK BEGINNING 1 WK PRIOR TO CARCINOGEN TREATMENT (STUDY DURATION: 32 WK), Target Tissue: Type of Lesion: SMALL INTESTINE: ADENOMA): 1/20 (5%), 0/20 (0%), 100%, not significant | tumour outcome (control, treated, inhibition, significance) (500 PPM IN DIET FOR 28 WK BEGINNING 1 WK POST CARCINOGEN TREATMENT (STUDY DURATION: 32 WK), Target Tissue: Type of Lesion: COLON: ADENOCARCINOMA): 75%, 40%, 47%, not significant | tumour outcome (control, treated, inhibition, significance) (500 PPM IN DIET FOR 28 WK BEGINNING 1 WK POST CARCINOGEN TREATMENT (STUDY DURATION: 32 WK), Target Tissue: Type of Lesion: LARGE INTESTINE: ADENOCARCINOMA): 15/20 (75%), 8/20 (40%), 47%, not significant | tumour outcome (control, treated, inhibition, significance) (500 PPM IN DIET FOR 28 WK BEGINNING 1 WK POST CARCINOGEN TREATMENT (STUDY DURATION: 32 WK), Target Tissue: Type of Lesion: LARGE INTESTINE: ADENOMA): 2/20 (10%), 3/20 (15%), -50%, not significant | tumour outcome (control, treated, inhibition, significance) (500 PPM IN DIET FOR 28 WK BEGINNING 1 WK POST CARCINOGEN TREATMENT (STUDY DURATION: 32 WK), Target Tissue: Type of Lesion: SMALL INTESTINE: ADENOCARCINOMA): 6/20 (30%), 1/20 (5%), 83%, not significant | tumour outcome (control, treated, inhibition, significance) (500 PPM IN DIET FOR 28 WK BEGINNING 1 WK POST CARCINOGEN TREATMENT (STUDY DURATION: 32 WK), Target Tissue: Type of Lesion: SMALL INTESTINE: ADENOMA): 1/20 (5%), 0/20 (0%), 100%, not significant | tumour outcome (control, treated, inhibition, significance) (1000 PPM IN DIET FOR 4 WK BEGINNING 1 WK PRIOR TO CARCINOGEN TREATMENT (STUDY DURATION: 32 WK), Target Tissue: Type of Lesion: COLON: ADENOCARCINOMA): 75%, 30%, 60%, p<0.05 | tumour outcome (control, treated, inhibition, significance) (1000 PPM IN DIET FOR 4 WK BEGINNING 1 WK PRIOR TO CARCINOGEN TREATMENT (STUDY DURATION: 32 WK), Target Tissue: Type of Lesion: COLON: ADENOMA): 10%, 9%, 10%, not significant | tumour outcome (control, treated, inhibition, significance) (1000 PPM IN DIET FOR 4 WK BEGINNING 1 WK PRIOR TO CARCINOGEN TREATMENT (STUDY DURATION: 32 WK), Target Tissue: Type of Lesion: LARGE INTESTINE: ADENOCARCINOMA): 15/20 (75%), 7/23 (30%), 60%, p<0.006 | tumour outcome (control, treated, inhibition, significance) (1000 PPM IN DIET FOR 4 WK BEGINNING 1 WK PRIOR TO CARCINOGEN TREATMENT (STUDY DURATION: 32 WK), Target Tissue: Type of Lesion: LARGE INTESTINE: ADENOMA): 2/20 (10%), 2/23 (9%), 10%, not significant | tumour outcome (control, treated, inhibition, significance) (1000 PPM IN DIET FOR 4 WK BEGINNING 1 WK PRIOR TO CARCINOGEN TREATMENT (STUDY DURATION: 32 WK), Target Tissue: Type of Lesion: SMALL INTESTINE: ADENOCARCINOMA): 6/20 (30%), 8/23 (35%), -17%, not significant | tumour outcome (control, treated, inhibition, significance) (1000 PPM IN DIET FOR 4 WK BEGINNING 1 WK PRIOR TO CARCINOGEN TREATMENT (STUDY DURATION: 32 WK), Target Tissue: Type of Lesion: SMALL INTESTINE: ADENOMA): 1/20 (5%), 1/23 (4%), 20%, not significant | tumour outcome (control, treated, inhibition, significance) (1000 PPM IN DIET FOR 28 WK BEGINNING 1 WK POST CARCINOGEN TREATMENT (STUDY DURATION: 32 WK), Target Tissue: Type of Lesion: COLON: ADENOCARCINOMA): 75%, 22%, 71%, p<0.05 | tumour outcome (control, treated, inhibition, significance) (1000 PPM IN DIET FOR 28 WK BEGINNING 1 WK POST CARCINOGEN TREATMENT (STUDY DURATION: 32 WK), Target Tissue: Type of Lesion: COLON: ADENOMA): 10%, 9%, 10%, not significant | tumour outcome (control, treated, inhibition, significance) (1000 PPM IN DIET FOR 28 WK BEGINNING 1 WK POST CARCINOGEN TREATMENT (STUDY DURATION: 32 WK), Target Tissue: Type of Lesion: LARGE INTESTINE: ADENOCARCINOMA): 15/20 (75%), 5/23 (22%), 71%, p<0.008
